Test results as given in US20050209278A1, “Piperidinyl- and piperazinyl-sulfonylmethyl hydroxamic acids and their use as protease inhibitors” (priority 2002, published 2005).
Where a name gives a salt, the structure may show the parent alone. Read-outs that look alike come from different tables or passages of the source.

Tests used:
MMP-1 = target: T1, MMP-1 (Homo sapiens, UniProt P03956); experiment: In vitro MMP inhibition, Ki determination (fluorogenic substrate II); type: biochemical; conditions: read-out: MMP-1 Ki
T1 construct: made in house; host or cells: MMP-1-transfected HT-1080 cells (spent media)
T1 sequence (P03956 100-469): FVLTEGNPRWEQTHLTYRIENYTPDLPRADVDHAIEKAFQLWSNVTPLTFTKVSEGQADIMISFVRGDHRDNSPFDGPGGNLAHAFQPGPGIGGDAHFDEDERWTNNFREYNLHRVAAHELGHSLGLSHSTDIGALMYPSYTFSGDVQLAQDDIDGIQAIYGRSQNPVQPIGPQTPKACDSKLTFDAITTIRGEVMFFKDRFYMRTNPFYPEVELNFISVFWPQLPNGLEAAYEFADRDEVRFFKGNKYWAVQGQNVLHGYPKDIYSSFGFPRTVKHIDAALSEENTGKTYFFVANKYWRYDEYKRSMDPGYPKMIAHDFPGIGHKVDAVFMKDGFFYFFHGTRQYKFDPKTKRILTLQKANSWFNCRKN

MMP-14 = target: T2, MMP-14 (Homo sapiens, UniProt P50281); experiment: as above; type: biochemical; conditions: read-out: MMP-14 Ki
T2 construct: The catalytic domain enzyme was expressed in E. coli inclusion bodies, solubilized in urea; made in house
How it was run: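 Apparent Ki was fitted with Morrison's equation from reaction rates at a single low enzyme level. Enzyme was APMA- or trypsin-activated refolded MMP-14 catalytic domain, buffered at pH 7.5 with 10 mM CaCl2.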

[1] = human recombinant enzyme, 4 μM substrate II, room temperature, 1 hr
[2] = human recombinant enzyme (catalytic domain), 4 μM substrate II, room temperature, 1 hr

SMILES | Ki (MMP-1; [1]) [µM] | Ki (MMP-14; [2]) [µM] | Ki (MMP-1; value not in parenthesis) [µM] | Ki (MMP-14; value not in parenthesis) [µM]
O=C(NO)C1(S(=O)(=O)N2CCN(c3ccc(CCC(F)(F)C(F)(F)F)cc3)CC2)CCOCC1 [Example 17, N-hydroxy-4-({4-[4-(3,3,4,4,4-pentafluorobutyl)phenyl]piperazin-1-yl}sulfonyl)tetrahydro-2H-pyran-4-carboxamide Hydrochloride] | > 10 | 7.97 |  | 
O=C(NO)C1(S(=O)(=O)N2CCN(c3ncc(Br)cn3)CC2)CCOCC1 [Example 104] |  |  | 0.835 | 0.305
O=C(NO)C1(S(=O)(=O)N2CCN(c3ccc(OCCCC(F)(F)F)cc3F)CC2)CCOCC1 [Example 117] |  |  | > 10 | 5.69
CCCc1ccc(N2CCN(S(=O)(=O)C3(C(=O)NO)CCOCC3)CC2)nc1 [Example 136] |  |  | 2.38 | 0.159
CCCCOc1ccc(N2CCN(S(=O)(=O)C3(C(=O)NO)CCN(C(=O)OCC(F)(F)F)CC3)CC2)cc1 [Example 115] |  |  | > 10 | > 10
O=C(NO)C1(S(=O)(=O)N2CCN(c3ccc(SC(F)(F)F)cc3)CC2)CCN(Cc2ccccc2)CC1 [Example 152] |  |  | > 10 | 2.24
O=C(NO)C1(S(=O)(=O)N2CCC(c3cnc(OCC(F)(F)C(F)(F)F)cn3)CC2)CCOCC1 [Example 27] | 4.78 | 6.2 |  | 
O=C(NO)C1(S(=O)(=O)N2CCN(c3ccc(OCCCC(F)(F)F)cc3)CC2)CCN(c2cnccn2)CC1 [Example 112] |  |  | > 10 | 1.17
COc1ccc(N2CCN(S(=O)(=O)C3(C(=O)NO)CCOCC3)CC2)nc1 [Example 108] |  |  | > 10 | > 10
CCCCOc1ccc(N2CCN(S(=O)(=O)C3(C(=O)NO)CCN(c4nc5ccccc5o4)CC3)CC2)cc1 [Example 150] |  |  | > 10 | 8.65
